In patent US12564578B2, “Collagen P4H1 inhibitor and its use” (University of Kentucky Research Foundation, priority 2019, dated 2026):
“Also recorded” adds a separate entry of the source. Read-outs that look alike come from different tables or passages of the source.

Legend:
human C-P4H1 = target: T1, human C-P4H1 (Homo sapiens, UniProt P13674); experiment: Human C-P4H1 activity measured with Succinate-Glo Hydroxylase assay (also high-throughput screening); format: biochemical; conditions: for inhibition of C-P4H1 activity (luminescence): different concentrations, 200 nM C-P4H1
T1 construct: made in house; host or cells: HEK-293FT
Description: Human CP4H1 activity Assays were carried out at room temperature in 10 mM HEPES buffer containing 10 mM NaCl, pH 7.4. […] FeSO4 was prepared freshly in 10 mM HCl prior to each time use. Following 1 hour reaction, the reaction solution was subjected to Hydroxyproline Colorimetric Assay and Succinate-Glo™ Hydroxylase assay respectively.
(§1) Succinate-Glo™ Hydroxylase assay was ran following the protocol of Succinate-Glo™ JmjC Demethylase/Hydroxylase Assay (Promega, V7991). Briefly, following the human CP4H1 assay, 10 μL Succinate Detection Reagent I was added, including the enzymes 3-oxoacid CoA-transferase (SCOT) and succinyl CoA ligase (SCS), and acetoacetyl-CoA. See, TM488 Technical Manual and U.S. Pat. No. 9,677,117 for “Bioluminescent Succinate Detection Assay,” issued Jun. 13, 2017, assigned to Promega Corporation. Mix assay plate with a plate shaker for 30 seconds, and incubate at room temperature for 60 minutes. Add 20 μl of Succinate Detection Reagent II, including the enzyme luciferase, to each well of the assay plate to generate light from the ATP. See, Id. Mix assay plate with a plate shaker for 30 seconds, and incubate at room temperature for 10 minutes. Measure the luminescence with a plate-reading luminometer (BioTek).
[…] Then mix with peptide substrate (GlyProProGly(SEQ ID NO:1)OEt), 500 μM), FeSO4 (50 μM), catalase (0.1 mg/mL), ascorbate (2 mM), and α-ketoglutarate (100 μM) to react 1 hour at room temperature. The reaction volume was usually 10 μL. After the reaction, Succinate-Glo™ Hydroxylase assay was conducted in the corresponding 96-well or 384-well plate. 50 μM DHB was set as a positive control in each plate.

[1] = Succinate-Glo Hydroxylase assay in the absence of C-P4H1 (counter test); format: biochemical; conditions: no C-P4H1 in the reaction
Description: as §1
To further evaluate reliability of the Succinate-Glo™ assay, varied concentration of peptide substrate GPPG (FIG. 3A) and hydroxyl donor α-KG (FIG. 3B) were tested in the hydroxylation reaction, respectively. Increased concentration of GPPG and α-KG induced luminescence assay in a dose dependent manner. DHB has been identified as a C-P4Hs' inhibitor^35. To determine whether this assay can evaluate c-P4H1 inhibitor's activity, C-P4H1 was incubated with different concentration of DHB for 30 min at 4° C., and then the hydroxylation reaction and the bioluminescence-based assay were performed. […] The IC50 was detected at around 20 μM, which is much lower than the IC50 value of 0.1 mM reported in the previous research with the collagen hydroxylation assay in the chicken tendon cells (doi: 10.1042/bj2610127); this is probably due to the sensitivity difference between two methods. In the absence of C-P4H1, DHB had little effect on the Succinate-Glo™ assay, indicating the inhibitory effect is specific on the prolyl hydroxylation reaction (FIG. 3D).

[2] = tested on: collagen hydroxylation in chicken tendon cells; conditions: collagen hydroxylation assay, doi: 10.1042/bj2610127, read-out: IC50 reported in previous research; cited from earlier work
HS-578T cells [3] = experiment: Western blot of type I collagen in conditioned medium of treated cells; format: cell-based; conditions: 48 hours, 10 μM and 20 μM
Description: Chemical treated Hs578 cells were lysed in 2% sodium dodecyl sulfate (SDS) in phosphate-buffered saline (PBS) buffer containing phosphatase and protease inhibitor cocktails (EMD Millipore, 539131). Protein concentration was measured using Pierce™ BCA Protein Assay Kit (Thermo Fisher Scientific, 23227). Equal amounts of protein lysates or cell conditional medium (normalized to cell numbers) were subjected to SDS gel electrophoresis, immunoblotted with primary antibodies (Anti-Collagen I antibody, ab34710; Anti-tubulin, Cell Signaling 2148)) and DyLight 680/800-conjugated secondary antibodies (DyLight 680-conjugated goat anti-rabbit IgG secondary antibody Thermo Fisher Scientific, 35569; DyLight 800-conjugated goat anti-mouse IgG secondary antibody Thermo Fisher Scientific, SA5-35521).
To determine whether the identified potential inhibitors suppress the C-P4H1 activity in tissue culture, HS-578T cells were treated with Silodosin or Ticlopidine for 48 hours. Since collagen maturation and secretion was regulated by the C-P4H1, conditioned media were collected from control and Silodosin- or Ticlopidine-treated cells for western blot analysis.

MDA-MB-231 cells = experiment: 3D culture assay, invasive branching / invasive growth; format: cell-based; conditions: MDA-MB-231, 10 μM and 20 μM, 48 hours
Description: (§2) 3D laminin-rich extracellular matrix (3D lrECM) on-top cultures were prepared by trypsinization of cells from tissue culture plastic^25. Growth Factor Reduced BD Matrigel™ was plated on the bottom of the cell culture dish. MDA-MB-231 and HS-578 cells were seeded on the top of the matrigel layer, and additional medium containing 10% Matrigel was added on the top.
(§3) All the 3D culture assay images were acquired by Nikon microscope and were quantified with the Nikon analysis software. Results are reported as mean±S.E.M; the significance of difference was assessed by independent Student's t-test. P<0.05 represents statistical significance and P<0.01 represents sufficiently statistical significance. All reported P values were 2-tailed.
(§4) It has been shown that silence of P4HAs suppress invasive tumor growth in three-dimensional (3D) tissue culture model^19,25. 3D culture model has been widely used to evaluate drug effect^38. To further evaluate the inhibitory ability of these chemicals in tumor progression, triple-negative breast cancer cell lines, MDA-MB-231 cells and HS-578T cells were treated with Silodosin and Ticlopidine in 3D culture^39. […] Invasive branching structure of cancer cells in 3D culture is associated with tumor invasion and aggressive phenotypes^15, 19, 25. […]

HS-578T cells [4] = experiment: 3D culture assay, invasive branching; format: cell-based; conditions: 10 μM and 20 μM, 24 hours
Description: as §2, §3, §4

T1 sequence (P13674 18-534): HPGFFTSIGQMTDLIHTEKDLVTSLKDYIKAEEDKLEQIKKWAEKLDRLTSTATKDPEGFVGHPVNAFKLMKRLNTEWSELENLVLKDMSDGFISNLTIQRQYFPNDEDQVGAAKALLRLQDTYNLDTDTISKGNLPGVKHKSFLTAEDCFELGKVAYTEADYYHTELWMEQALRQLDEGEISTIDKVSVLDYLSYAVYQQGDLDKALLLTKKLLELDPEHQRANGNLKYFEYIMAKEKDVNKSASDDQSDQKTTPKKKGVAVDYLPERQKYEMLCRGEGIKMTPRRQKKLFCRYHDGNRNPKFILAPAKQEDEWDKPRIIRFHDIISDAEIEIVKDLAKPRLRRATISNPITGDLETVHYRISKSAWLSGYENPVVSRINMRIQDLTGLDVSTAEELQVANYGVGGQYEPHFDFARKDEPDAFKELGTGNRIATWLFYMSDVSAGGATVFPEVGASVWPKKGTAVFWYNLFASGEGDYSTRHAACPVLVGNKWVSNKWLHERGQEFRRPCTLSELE
T1 sequence (P07237 18-508 partner): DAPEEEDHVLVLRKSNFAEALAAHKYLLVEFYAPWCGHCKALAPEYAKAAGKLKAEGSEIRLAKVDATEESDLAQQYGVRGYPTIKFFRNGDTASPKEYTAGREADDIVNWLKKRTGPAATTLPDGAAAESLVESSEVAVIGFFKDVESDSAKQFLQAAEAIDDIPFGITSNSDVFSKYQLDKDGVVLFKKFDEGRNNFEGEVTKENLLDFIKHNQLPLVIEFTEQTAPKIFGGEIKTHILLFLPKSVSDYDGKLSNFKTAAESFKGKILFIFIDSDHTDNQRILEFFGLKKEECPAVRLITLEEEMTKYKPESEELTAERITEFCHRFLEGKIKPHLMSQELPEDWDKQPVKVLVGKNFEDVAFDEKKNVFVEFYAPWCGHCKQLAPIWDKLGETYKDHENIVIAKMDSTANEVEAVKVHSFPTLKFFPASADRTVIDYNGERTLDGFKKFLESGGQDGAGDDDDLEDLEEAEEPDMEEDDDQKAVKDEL

Row | Structure (SMILES) | IC50 (human C-P4H1; 0.1 μM WT C-P4HA1 (FIG. 3E), read-out: IC50 of wild type C-P4H1 inhibition) | IC50 (human C-P4H1; C-P4H1 200 nM, preincubated 30 min at 4° C. (FIG. 3C), read-out: IC50 of C-P4H1 inhibition) | inhibition of C-P4H1 activity (luminescence) (human C-P4H1) | effect on the luminescence assay in the absence of C-P4H1 [1] | IC50 [2] | kinetic property of C-P4H1 inhibition (human C-P4H1; dose curves, FIG. 4D and 4F) | effect on the luminescence assay in the absence of C-P4H1 ([1]; listed as Silodocin) | protein levels of type I collagen in the conditioned media (HS-578T cells [3]) | invasive branching structures in 3D culture (MDA-MB-231 cells) | invasive branching structures in 3D culture (HS-578T cells [4])
1 | CCOC(=O)c1ccc(O)c(O)c1 [DHB, ethyl-3,4-dihydroxybenzoic acid] | ~40 µM | ~20 µM | significantly reduced luminescence values | little effect; also recorded: did not inhibit | 100 µM | – | – | – | – | –
2 | C[C@H](Cc1cc2c(c(C(N)=O)c1)N(CCCO)CC2)NCCOc1ccccc1OCC(F)(F)F [Silodosin] | – | – | inhibited C-P4H1 activity in a dose-dependent manner | little effect | – | faster kinetic property compared to ticlopidine | did not inhibit | reduced protein levels of type I collagen | significantly reduced invasive branching structures | significantly reduced invasive branching structures
